The text below walks through data of patent US7943629B2, “Sulphimides as protein kinase inhibitors” (Bayer Schering Pharma AG, priority 2006, dated 2011).

As usually defined, the IC50 is the point on the concentration scale where inhibition reaches its midpoint. Lower therefore signals greater potency in that assay.

One assay addresses T1, CDK2/CycE (Homo sapiens, UniProt P24941).
T1 construct: GST; purchased ProQinase GmbH, Freiburg; host or cells: baculovirus-infected insect cells (Sf9)
Nature of the assay: CDK2/CycE kinase assay. It counts as biochemical. The note with it: 0.5 μM ATP, histone IIIS, 22° C., 10 min. On the procedure:
Recombinant CDK2- and CycE-GST fusion proteins, purified from baculovirus-infected insect cells (Sf9), were purchased from ProQinase GmbH, Freiburg. The histone IIIS used as kinase substrate was purchased from Sigma.
(§1) CDK2/CycE (50 ng/measurement point) was incubated in the presence of various concentrations of test substances (0 μM, and within the range 0.01-100 μM) in assay buffer [50 mM Tris/HCl pH 8.0, 10 mM MgCl2, 0.1 mM Na ortho-vanadate, 1.0 mM dithiothreitol, 0.5 μM ATP, 10 μg/measurement point histone IIIS, 0.2 μCi/measurement point ^33P-gamma-ATP, 0.05% NP40, 1.25% dimethyl sulphoxide] at 22° C. for 10 min. The reaction was stopped by adding EDTA solution (250 mM, pH 8.0, 15 μl/measurement point).
15 μl of each reaction mixture were loaded onto P30 filter strips (from Wallac), and non-incorporated ^33P-ATP was removed by washing the filter strips three times in 0.5% strength phosphoric acid for 10 min each time.
After the filter strips had been dried at 70° C. for 1 hour, the filter strips were covered with scintillator strips (MeltiLex™ A, from Wallac) and baked at 90° C. for 1 hour. The amount of incorporated ^33P (substrate phosphorylation) was determined by scintillation measurement in a gamma radiation counter (Wallac).

A further assay has as its target T2, KDR (VEGFR2) (Homo sapiens, UniProt P35968).
T2 construct: made in house; host or cells: E. coli
Put plainly: KDR kinase assay. It counts as biochemical. To be noted: 10 μM ATP, 22° C., 45 min, HTRF. The protocol: Recombinant KDR protein was expressed in E. coli and then purified. The kinase substrate used was the biotinylated peptide having the amino acid sequence biotin-DFGLARDMYDKEYYSVG, which was purchased from Biosynthan. KDR [test volume 5 μl] was incubated in the presence of various concentrations of test substances (0 μM, and 10 measurement points within the range 0.001-20 μM in duplicate) in assay buffer [50 mM HEPES pH 7.0, 25.0 mM MgCl2, […], 0.1 mM Na ortho-vanadate, 1.0 mM dithiothreitol, 0.001% NP40, 10 μM ATP, 0.03 μM substrate peptide […], 1.0% dimethyl sulphoxide] at 22° C. for 45 min. The reaction was stopped by adding 5 μl of an EDTA/detection solution [50 mM HEPES pH 7.5, 125 mM EDTA, 0.2% BSA, 0.1 μM streptavidin-XLent (from CisBio), 2 nM PT66-Eu (from PerkinElmer)]. The fluorescence emission at 620 nm and 665 nm after excitation with light of the wavelength 350 nm was measured in a Rubystar HTRF instrument from BMG Labsystems.
The measured data (ratio of emission 665 divided by emission 620 multiplied by 10 000) were normalized to 0% inhibition (enzyme reaction without inhibitor) and 100% inhibition (all assay components apart from enzyme). The IC50 values were determined by means of a 4-parameter fit using the company's own software.
On the technique in general: TR-FRET usually uses a lanthanide donor and a delayed reading to cut background.

The test system of another assay is MCF7 breast tumour cells. Nature of the assay: MCF7 proliferation assay. It counts as cell-based, human. To be noted: for IC50: Homo sapiens, MCF7, 96 h, 4 days incubation, crystal violet staining; for antiproliferative activity, MCF7 (in words): summary of Tab. 2. On the procedure: Cultivated human MCF7 breast tumour cells (ATCC HTB-22) were plated out in a density of 5000 cells/measurement point in 200 μl of growth medium (RPMI1640, 10% foetal calf serum, 2 mU/mL insulin, 0.1 nM oestradiol) in a 96-well multititre plate. After 24 hours, the cells from a plate (zero plate) were stained with crystal violet (see below), while the medium in the other plates was replaced by fresh culture medium (200 μl) to which the test substances had been added in various concentrations (0 μM, and in the range 0.1-30 μM; the final concentration of the solvent dimethyl sulphoxide was 0.5%). The cells were incubated in the presence of the test substances for 4 days. The cell proliferation was determined by staining the cells with crystal violet: the cells were fixed by adding 20 μl/measurement point of an 11% strength glutaraldehyde solution at room temperature for 15 min. After the fixed cells had been washed three times with water, the plates were dried at room temperature. The cells were stained by adding 100 μl/measurement point of a 0.1% strength crystal violet solution (pH adjusted to pH 3 by adding acetic acid). After the stained cells had been washed three times with water, the plates were dried at room temperature. The dye was dissolved by adding 100 μl/measurement point of a 10% strength acetic acid solution, and the extinction was determined by photometry at a wavelength of 595 nm. The percentage change in cell growth was calculated by normalizing the measurements to the extinctions of the zero point plate (=0%) and the extinction of the untreated (0 μM) cells (=100%). The IC50 values were determined by means of a 4-parameter fit using the company's own software.

The target of the next assay is T3, CDK1/CycB (Homo sapiens, UniProt P06493).
T3 construct: GST; purchased ProQinase GmbH, Freiburg; host or cells: baculovirus-infected insect cells (Sf9)
Put plainly: CDK1/CycB kinase assay. The class given is biochemical. To be noted: 0.5 μM ATP, histone IIIS, 22° C., 10 min. The protocol:
as §1, with “Recombinant CDK1- and CycB-GST fusion proteins, purified from baculovirus-infected insect cells (Sf9), were purchased from ProQinase GmbH, Freiburg. The histone IIIS used as kinase substrate can be purchased from Sigma. CDK1/CycB (200” for “CDK2/CycE (50”
15 μl of each reaction mixture were loaded onto P30 filter strips (from Wallac), and non-incorporated ^33P-ATP was removed by washing the filter strips three times in 0.5% strength phosphoric acid for 10 min each time. After the filter strips had been dried at 70° C. for 1 hour, the filter strips were covered with scintillator strips (MeltiLex™ A, from Wallac) and baked at 90° C. for 1 hour. The amount of incorporated ^33P (substrate phosphorylation) was determined by scintillation measurement in a gamma radiation counter (Wallac).

For another assay, the target named is T4, Aurora-C (Homo sapiens, UniProt Q9UQB9).
T4 construct: made in house; host or cells: transiently transfected HEK293 cells
T4 sequence (Q9UQB9 1-309): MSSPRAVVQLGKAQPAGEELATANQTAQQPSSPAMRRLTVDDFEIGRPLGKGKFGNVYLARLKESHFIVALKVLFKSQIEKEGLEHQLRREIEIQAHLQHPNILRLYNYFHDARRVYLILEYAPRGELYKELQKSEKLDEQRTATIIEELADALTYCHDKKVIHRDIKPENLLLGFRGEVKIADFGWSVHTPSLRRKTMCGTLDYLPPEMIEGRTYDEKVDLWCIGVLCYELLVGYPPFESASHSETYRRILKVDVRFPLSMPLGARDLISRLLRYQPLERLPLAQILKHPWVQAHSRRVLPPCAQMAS
Put plainly: Aurora-C kinase assay. To be noted: 3 μM ATP, 22° C., 90 min. The class given is biochemical. On the procedure: Recombinant Aurora-C protein was expressed in transiently transfected HEK293 cells and then purified. The kinase substrate used was the biotinylated peptide having the amino acid sequence biotin-FMRLRRLSTKYRT, which was purchased from Jerini AG in Berlin.
Aurora-C [5 nM in the test mixture, test volume 5 μl] was incubated in the presence of various concentrations of test substances (0 μM and 10 measurement points within the range 0.001-20 μM in duplicate) in assay buffer [25 mM HEPES pH 7.4, 0.5 mM MnCl2, 0.1 mM Na ortho-vanadate, 2.0 mM dithiothreitol, 0.05% bovine serum albumin (BSA), 0.01% Triton X-100, 3 μM adenosine trisphosphate (ATP), 0.67 nCi/μl gamma-^33P-ATP, 2.0 μM substrate peptide biotin-FMRLRRLSTKYRT, 1.0% dimethyl sulphoxide] at 22° C. for 90 min. The reaction was stopped by adding 12.5 μl of an EDTA/detection solution [16 mM EDTA, 40 mM ATP, 0.08% Triton X-100, 4 mg/ml PVT streptavidin SPA beads (from Amersham)]. After incubation for 10 minutes, the SPA beads were pelleted by centrifugation at 1000×G for 10 minutes. Measurement took place in a PerkinElmer Topcount scintillation counter. The measured data were normalized to 0% inhibition (enzyme reaction without inhibitor) and 100% inhibition (enzyme reaction in the presence of 0.1 μM staurosporine (from Sigma)). The IC50 values were determined by means of a 4-parameter fit using the company's own software.

T3 sequence (P06493 whole entry): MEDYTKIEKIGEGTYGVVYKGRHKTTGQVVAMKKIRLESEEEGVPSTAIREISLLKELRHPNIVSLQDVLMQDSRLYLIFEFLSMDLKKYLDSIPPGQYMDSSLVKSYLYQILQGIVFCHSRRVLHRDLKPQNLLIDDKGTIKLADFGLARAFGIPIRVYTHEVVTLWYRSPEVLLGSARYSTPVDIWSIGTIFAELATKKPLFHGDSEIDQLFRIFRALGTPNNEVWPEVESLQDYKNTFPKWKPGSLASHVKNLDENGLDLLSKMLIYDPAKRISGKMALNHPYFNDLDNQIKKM
T3 sequence (P14635 whole entry partner): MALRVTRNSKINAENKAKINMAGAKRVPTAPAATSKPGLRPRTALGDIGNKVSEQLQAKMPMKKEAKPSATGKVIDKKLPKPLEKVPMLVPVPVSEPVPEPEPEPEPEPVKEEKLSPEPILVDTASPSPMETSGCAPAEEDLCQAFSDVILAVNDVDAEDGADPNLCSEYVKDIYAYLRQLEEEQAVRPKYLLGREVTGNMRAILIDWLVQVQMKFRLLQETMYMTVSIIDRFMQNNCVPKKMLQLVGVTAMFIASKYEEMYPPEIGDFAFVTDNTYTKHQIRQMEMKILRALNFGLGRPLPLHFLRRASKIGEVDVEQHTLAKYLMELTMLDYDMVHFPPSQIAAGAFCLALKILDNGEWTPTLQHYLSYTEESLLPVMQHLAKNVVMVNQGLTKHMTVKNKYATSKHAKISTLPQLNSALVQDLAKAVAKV
T2 sequence (P35968 20-1356, species assumed): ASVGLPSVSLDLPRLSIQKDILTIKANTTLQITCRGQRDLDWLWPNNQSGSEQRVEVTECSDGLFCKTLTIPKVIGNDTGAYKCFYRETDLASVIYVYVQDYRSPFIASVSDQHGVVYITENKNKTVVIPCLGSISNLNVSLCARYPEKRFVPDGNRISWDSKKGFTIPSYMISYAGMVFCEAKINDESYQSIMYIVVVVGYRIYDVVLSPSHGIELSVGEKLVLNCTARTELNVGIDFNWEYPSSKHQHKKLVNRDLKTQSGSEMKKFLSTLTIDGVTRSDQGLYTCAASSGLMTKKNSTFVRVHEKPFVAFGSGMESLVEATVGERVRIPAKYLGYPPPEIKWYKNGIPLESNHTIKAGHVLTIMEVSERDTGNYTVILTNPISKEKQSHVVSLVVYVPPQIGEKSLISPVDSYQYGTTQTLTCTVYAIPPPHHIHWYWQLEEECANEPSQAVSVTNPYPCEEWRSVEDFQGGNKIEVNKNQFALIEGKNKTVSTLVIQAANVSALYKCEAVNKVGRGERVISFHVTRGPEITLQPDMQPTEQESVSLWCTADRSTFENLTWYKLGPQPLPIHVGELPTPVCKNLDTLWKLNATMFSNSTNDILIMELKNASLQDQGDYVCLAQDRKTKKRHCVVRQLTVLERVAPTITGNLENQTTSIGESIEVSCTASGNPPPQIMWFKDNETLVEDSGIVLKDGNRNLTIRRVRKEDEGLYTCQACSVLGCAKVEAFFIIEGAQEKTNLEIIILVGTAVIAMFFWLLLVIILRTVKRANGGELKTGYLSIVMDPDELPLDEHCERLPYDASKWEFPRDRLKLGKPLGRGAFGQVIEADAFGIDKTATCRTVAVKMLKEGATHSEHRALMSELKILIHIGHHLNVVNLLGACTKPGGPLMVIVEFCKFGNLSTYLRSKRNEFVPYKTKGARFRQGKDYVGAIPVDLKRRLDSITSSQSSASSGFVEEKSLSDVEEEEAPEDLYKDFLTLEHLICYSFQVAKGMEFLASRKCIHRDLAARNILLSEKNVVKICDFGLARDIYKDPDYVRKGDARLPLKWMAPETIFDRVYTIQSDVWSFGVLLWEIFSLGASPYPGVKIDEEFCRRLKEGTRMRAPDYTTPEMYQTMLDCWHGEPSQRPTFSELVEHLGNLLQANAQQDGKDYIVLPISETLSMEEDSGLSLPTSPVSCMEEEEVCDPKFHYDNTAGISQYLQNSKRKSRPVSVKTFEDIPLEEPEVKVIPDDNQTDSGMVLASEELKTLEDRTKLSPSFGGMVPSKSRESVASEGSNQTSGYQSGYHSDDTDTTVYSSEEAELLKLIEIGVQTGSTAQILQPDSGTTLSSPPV

For the compound `C[C@@H](Nc1nc(Nc2ccc(S(C)=NS(=O)(=O)c3ccccc3)cc2)ncc1Br)C(C)(C)O` (mixture of isomers) [Example 15, (RS)—S-{4-[(5-Bromo-4-{[(R)-2-hydroxy-1,2-dimethylpropyl]amino}pyrimidin-2-yl)amino]phenyl}-S-methyl-N-(phenylsulphonyl)sulphimide], the half-maximal inhibitory concentration (IC50) against CDK2/CycE was found to be 21 nM; at KDR (VEGFR2) it was 37 nM; with MCF7 breast tumour cells, 110 nM; at CDK1/CycB, 110 nM; against Aurora-C it was 570 nM. In the assay on MCF7 breast tumour cells, the “antiproliferative activity, MCF7 (in words)” value is “excellent antiproliferative activity”.

Regarding `C[C@@H](Nc1nc(Nc2ccc(S(C)=NS(=O)(=O)c3ccc(OC(F)(F)F)cc3)cc2)ncc1Br)C(C)(C)O` (mixture of isomers) [Example 16, (RS)—S-{4-[(5-Bromo-4-{[(R)-2-hydroxy-1,2-dimethylpropyl]-amino}pyrimidin-2-yl)amino]phenyl}-S-methyl-N-{[4-(trifluoromethoxy)phenyl]-sulphonyl}sulphimide], the IC50 on CDK2/CycE was found to be 72 nM; at KDR (VEGFR2), 150 nM; in the assay with MCF7 breast tumour cells, 170 nM; against CDK1/CycB, 260 nM; against Aurora-C, 1800 nM. In addition, the “antiproliferative activity, MCF7 (in words)” value in the assay on MCF7 breast tumour cells is “excellent antiproliferative activity”.

Take `C[C@@H](Nc1nc(Nc2ccc(S(C)=NS(C)(=O)=O)cc2)ncc1Br)C(C)(C)O` (mixture of isomers) [Example 18, (RS)—S-{4-[(5-Bromo-4-{[(R)-2-hydroxy-1,2-dimethylpropyl]amino}pyrimidin-2-yl)amino]phenyl}-N-mesyl-S-methylsulphimide]: the IC50 at CDK2/CycE worked out at 6 nM; against KDR (VEGFR2), 35 nM; with MCF7 breast tumour cells, 170 nM; against CDK1/CycB it was 50 nM; on Aurora-C, 400 nM.

Consider `CC(=O)Nc1nnc(S(=O)(=O)N=S(C)c2ccc(Nc3ncc(Br)c(N[C@H](C)C(C)(C)O)n3)cc2)s1` (mixture of isomers) [Example 19, (RS)—N-{[5-(Acetylamino)-1,3,4-thiadiazol-2-yl]sulphonyl}-S-{4-[(5-bromo-4-{[(R)-2-hydroxy-1,2-dimethylpropyl]amino}pyrimidin-2-yl)amino]phenyl}-S-methyl-sulphimide], for which the concentration for half-maximal inhibition (IC50) against CDK2/CycE stood at 25 nM; against KDR (VEGFR2), 320 nM; in the assay with MCF7 breast tumour cells, 1800 nM; against CDK1/CycB, 98 nM; against Aurora-C, 1100 nM.

Take `CCS(=O)(=O)N=S(C)c1ccc(Nc2ncc(Br)c(N[C@H](C)C(C)(C)O)n2)cc1` (mixture of isomers) [Example 20, (RS)—S-{4-[(5-Bromo-4-{[(R)-2-hydroxy-1,2-dimethylpropyl]amino}pyrimidin-2-yl)amino]phenyl}-N-(ethylsulphonyl)-S-methylsulphimide]: the IC50 on CDK2/CycE is 10 nM; on KDR (VEGFR2), 35 nM; in the assay with MCF7 breast tumour cells, 350 nM; at CDK1/CycB, 31 nM; against Aurora-C, 250 nM.

In the case of `CCCS(=O)(=O)N=S(C)c1ccc(Nc2ncc(Br)c(N[C@H](C)C(C)(C)O)n2)cc1` (mixture of isomers) [Example 21, (RS)—S-{4-[(5-Bromo-4-{[(R)-2-hydroxy-1,2-dimethylpropyl]amino}pyrimidin-2-yl)amino]phenyl}-S-methyl-N-(propylsulphonyl)sulphimide], the IC50 on CDK2/CycE was found to be 12 nM; on KDR (VEGFR2), 49 nM; with MCF7 breast tumour cells, 310 nM; at CDK1/CycB, 36 nM; against Aurora-C it was 390 nM.

In the case of `C[C@@H](Nc1nc(Nc2ccc(S(C)=NS(=O)(=O)C(C)(C)C)cc2)ncc1Br)C(C)(C)O` (mixture of isomers) [Example 22, (RS)—S-{4-[(5-Bromo-4-{[(R)-2-hydroxy-1,2-dimethylpropyl]amino}pyrimidin-2-yl)amino]phenyl}-N-(tert-butylsulphonyl)-S-methylsulphimide], the half-inhibitory concentration (IC50) turned out to be 22 nM on CDK2/CycE; 44 nM against KDR (VEGFR2); 330 nM in the assay with MCF7 breast tumour cells; 46 nM on CDK1/CycB; 390 nM against Aurora-C.
